Here are results for 6 molecules from ChEMBL document CHEMBL5532716, “UPLC-Q-TOF-MS/MS-Based Targeted Discovery of Chetomin Analogues from Chaetomium cochliodes” (J Nat Prod, 2024).

Assay [1] has as its system A549. Put plainly: Cytotoxicity against human A549 cells assessed as inhibition of cell viability by MTT assay. Format: functional, cell-based.
For assay [2], the system named is HeLa. Put plainly: Cytotoxicity against human HeLa cells assessed as inhibition of cell viability by MTT assay. The assay is classed as functional, cell-based. For orientation: Tetrazolium dyes change colour on reduction, which living cells bring about.

In general, IC50 refers to the point on the concentration scale where inhibition reaches its midpoint. Consider `CN1C(=O)[C@]2(Cc3c[nH]c4ccccc34)SSSS[C@@]1(CO)C(=O)N2C`, for which the IC50 is 2.2 µM in assay [1] and 1.9 µM in assay [2].

Consider `CNC(=O)[C@@]12C[C@]3(n4cc(C[C@@]56SSSS[C@@](CO)(C(=O)N5C)N(C)C6=O)c5ccccc54)c4ccccc4N[C@@H]3N1C(=O)C(=O)N[C@H]2C`, for which the IC50 in assay [1] came to 1.9 µM; in assay [2] it was 1.6 µM.

Turning to `CS[C@@]12Cc3c([nH]c4ccccc34)[C@@](CO)(NC1=O)C(=O)N2`, the IC50 in assay [1] and in assay [2] was 25 µM throughout.

Consider `CS[C@@]1(CO)C(=O)N/C(=C\c2c[nH]c3ccccc23)C(=O)N1C`, for which the IC50 in assay [1] and in assay [2] was 30 µM throughout.

Turning to `CN1C(=O)[C@]2(Cc3cn([C@]45C[C@@]67SS[C@@](CO)(C(=O)N6[C@H]4Nc4ccccc45)N(C)C7=O)c4ccccc34)SS[C@@]1(CO)C(=O)N2C` [CHETOMIN], the IC50 worked out at 3.5 µM in assay [1] and 2.4 µM in assay [2].

As for `CS[C@]1(CO)NC(=O)[C@](Cc2c[nH]c3ccccc23)(SC)NC1=O` [CHETOSEMINUDIN C], the IC50 in assay [1] came out at 30 µM; in assay [2] it was 33 µM.
